{"source": "patent US4347319A", "about": "“Microbiological epoxidation process” (priority 1980, dated 1982)", "key": {"[1]": {"system": "Hansenula polymorpha ATCC 26012", "assay": "Oxidation of sec-alcohols to ketones by cell suspensions of yeasts", "format": "cell-based", "details": "sec-alcohol to methyl ketone"}, "[2]": {"system": "Candida utilis ATCC 26387", "assay": "Oxidation of sec-alcohols to ketones by cell suspensions of yeasts", "format": "cell-based", "details": "sec-alcohol to methyl ketone"}, "[3]": {"system": "cell-free soluble extract of Pseudomonas sp. CRL 75 ATCC 21439", "details": "growth substrate CH3 OH; NAD added", "description": "To prepare the cell-free secondary alcohol dehydrogenous (SADH) system, the washed cells were disrupted with a Wave Energy Ultrasonic Oscillator, Model W201 (Wave Energy System, Inc., Newtown, Pa.) and centrifuged at 20,000×g. for 30 minutes. The clear supernatant contained the SADH activity. The enzyme activity was measured with a fluorescence spectrophotometer (Perkin Elmer, Model MPF 44A) by following the formation of reduced NAD (EX 340 nm, Em 460 nm). The formation of reduced NAD was also followed with an absorption spectrophotometer at 340 nm. The assay system (3 ml.) contained: potassium phosphate buffer pH 7.0; 150 μmol.; NAD 1 μmol.; a given amount of enzyme preparation; and secondary alcohol 10 μmol. The reaction was started by the addition of substrate. One unit of enzyme activity represents the reduction of one μmole NAD per minute. Protein concentrations were determined by the Lowry method as referenced above."}, "[4]": {"system": "Kloeckera sp. Strain A2 (NRRLY-11,420)", "assay": "Oxidation of sec-alcohols to ketones by cell suspensions of yeasts", "format": "cell-based", "details": "sec-alcohol to methyl ketone"}, "[5]": {"system": "cell extract of Pichia sp. NRRL-Y-11,328", "assay": "Oxidation of secondary alcohols to methylketone by cell extracts of yeasts", "format": "biochemical", "details": "methanol-grown; cell extract + NAD^+; sec. alcohol to methyl ketone; gas chromatography"}, "[6]": {"system": "cell extract of Torulopsis sp. strain A1 NRRL-Y-11,419", "assay": "Oxidation of secondary alcohols to methylketone by cell extracts of yeasts", "format": "biochemical"}, "[7]": {"system": "cell extract of Candida utilis ATCC 26,387", "assay": "Oxidation of secondary alcohols to methylketone by cell extracts of yeasts", "format": "biochemical"}, "[8]": {"system": "Torulopsis sp. Strain A1 (NRRLY-11,419)", "assay": "Oxidation of sec-alcohols to ketones by cell suspensions of yeasts", "format": "cell-based", "details": "sec-alcohol to methyl ketone"}, "[9]": {"system": "cell extract of Hansenula polymorpha ATCC 26,012", "assay": "Oxidation of secondary alcohols to methylketone by cell extracts of yeasts", "format": "biochemical"}, "Pichia sp. NRRL-Y-11328": {"system": "Pichia sp. NRRL-Y-11328", "assay": "Oxidation of sec-alcohols to ketones by cell suspensions of yeasts", "format": "cell-based", "details": "sec-alcohol to methyl ketone"}, "[10]": {"system": "purified secondary alcohol dehydrogenase from Pichia sp. NRRL Y-11,328", "assay": "Substrate specificity, electron acceptor and stoichiometry of purified yeast SADH", "format": "biochemical", "details": "examined spectrophotometrically"}, "[11]": {"system": "Methylomonas methanica CRL M4P NRRL B-11,205", "assay": "Sec. alcohol oxidation by cell suspensions of methanol-grown cells", "format": "cell-based", "details": "sec. alcohol to methyl ketone"}, "[12]": {"system": "cell extract of Kloeckera sp. strain A2 NRRL-Y-11,420", "assay": "Oxidation of secondary alcohols to methylketone by cell extracts of yeasts", "format": "biochemical"}, "[13]": {"system": "methane-grown strain Methylococcus capsulatus NRRL B-11,219", "assay": "Effect of methane on the epoxidation of propylene by a cell suspension", "format": "cell-based", "details": "in the presence of methane", "from_the_text": "Both the epoxidation of the C2 -C4 1-alkenes and the hydroxylation of methane with the cell suspensions were inhibited by various metal-binding and metal-chelating agents, indicating the involvement of metal(s)-containing enzyme system(s). […] The epoxidation of propylene to propylene oxide by a cell suspension of methane-grown strain Methylococcus capsulatus NRRL B-11,219 was inhibited (50%) in the presence of the hydroxylation substrate, methane (Table XV). […] It is likely that the methane mono-oxygenase enzyme system catalyzes both the epoxidation of alkene and the hydroxylation of methane. May and Abbott publications, supra, have reported that the ω-hydroxylation system from Pseudomonas oleovorans catalyzed both the epoxidation of 1-octene and the hydroxylation of n-octane."}, "[14]": {"system": "cell-free particulate fractions derived from the methylotrophic microorganisms", "assay": "Inhibition of conversion of C3 -C6 n-alkanes to sec. alcohols", "format": "biochemical", "details": "oxygen and NADH present", "from_the_text": "The conditions for preparing the cell suspensions or the cell-free particulate fractions from methane-grown methylotroph microorganisms is the same as described above."}, "[15]": {"system": "Methylocystis parvus (CRL 18 PM4) NRRL B-11,204", "assay": "Oxidation by washed cell suspensions of methane-grown cells", "format": "cell-based", "details": "methane-grown washed cells, 30° C.; methane to methanol, alkene to 1,2-epoxide", "in_short": "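Cells grown 2 days at 30 °C under methane/air 1:1 (pH 7.0 medium), washed and resuspended in 0.15 M phosphate pH 7.0. Suspension (2 mg cells) incubated at 30 °C, 300 rpm under substrate/O2 1:1 (liquid substrates 10 μl); products measured periodically by GC with flame ionization detection.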"}, "[16]": {"details": "2-butanol as a substrate, spectrophotometrically"}, "[17]": {"details": "methanol-grown, cell extract + NAD^+, sec. alcohol to methyl ketone, gas chromatography"}}}
{"smiles": "CCC(C)O", "note": "(stereo not shown) [2-Butanol]", "values": [{"measurement": "Conversion Rate", "setting": "[1]; growth substrate Ethanol", "value": "4.8 μmoles/hr/mg of protein"}, {"measurement": "Conversion Rate", "setting": "[1]; growth substrate Methanol", "value": "5.8 μmoles/hr/mg of protein"}, {"measurement": "Conversion Rate", "setting": "[1]; growth substrate Methylamine", "value": "4.5 μmoles/hr/mg of protein"}, {"measurement": "Conversion Rate", "setting": "[1]; growth substrate Methylformate", "value": "5.2 μmoles/hr/mg of protein"}, {"measurement": "Conversion Rate", "setting": "[1]; growth substrate Propylamine", "value": "4.0 μmoles/hr/mg of protein"}, {"measurement": "Conversion Rate", "setting": "[2]; growth substrate Ethanol", "value": "5.2 μmoles/hr/mg of protein"}, {"measurement": "Conversion Rate", "setting": "[2]; growth substrate Methanol", "value": "6.8 μmoles/hr/mg of protein"}, {"measurement": "Conversion Rate", "setting": "[2]; growth substrate Methylamine", "value": "5.0 μmoles/hr/mg of protein"}, {"measurement": "Conversion Rate", "setting": "[2]; growth substrate Methylformate", "value": "6.2 μmoles/hr/mg of protein"}, {"measurement": "Conversion Rate", "setting": "[2]; growth substrate Propylamine", "value": "4.2 μmoles/hr/mg of protein"}, {"measurement": "Conversion Rate 2-butanol to 2-butanone", "setting": "[3]", "value": 25.0, "unit": "nmoles/min/mg protein"}, {"measurement": "Conversion Rate", "setting": "[4]; growth substrate Ethanol", "value": "5.7 μmoles/hr/mg of protein"}, {"measurement": "Conversion Rate", "setting": "[4]; growth substrate Methanol", "value": "5.9 μmoles/hr/mg of protein"}, {"measurement": "Conversion Rate", "setting": "[4]; growth substrate Methylamine", "value": "5.4 μmoles/hr/mg of protein"}, {"measurement": "Conversion Rate", "setting": "[4]; growth substrate Methylformate", "value": "5.9 μmoles/hr/mg of protein"}, {"measurement": "Conversion Rate", "setting": "[4]; growth substrate Propylamine", "value": "4.2 μmoles/hr/mg of protein"}, {"measurement": "Conversion Rate", "setting": "[5]", "value": 6.2, "unit": "μmoles/hr/mg Protein"}, {"measurement": "specific activities", "setting": "[6]; [16]", "value": "62 nmoles NAD^+ reduced per min. per mg. protein"}, {"measurement": "Conversion Rate", "setting": "[6]; [17]", "value": 4.9, "unit": "μmoles/hr/mg Protein"}, {"measurement": "specific activities", "setting": "[7]; [16]", "value": "78 nmoles NAD^+ reduced per min. per mg. protein"}, {"measurement": "Conversion Rate", "setting": "[7]; [17]", "value": 4.92, "unit": "μmoles/hr/mg Protein"}, {"measurement": "Conversion Rate", "setting": "[8]; growth substrate Ethanol", "value": "4.7 μmoles/hr/mg of protein"}, {"measurement": "Conversion Rate", "setting": "[8]; growth substrate Methanol", "value": "4.9 μmoles/hr/mg of protein"}, {"measurement": "Conversion Rate", "setting": "[8]; growth substrate Methylamine", "value": "4.5 μmoles/hr/mg of protein"}, {"measurement": "Conversion Rate", "setting": "[8]; growth substrate Methylformate", "value": "4.9 μmoles/hr/mg of protein"}, {"measurement": "Conversion Rate", "setting": "[8]; growth substrate Propylamine", "value": "3.8 μmoles/hr/mg of protein"}, {"measurement": "specific activities", "setting": "[9]; [16]", "value": "85 nmoles NAD^+ reduced per min. per mg. protein"}, {"measurement": "Conversion Rate", "setting": "[9]; [17]", "value": 5.2, "unit": "μmoles/hr/mg Protein"}, {"measurement": "Conversion Rate", "setting": "Pichia sp. NRRL-Y-11328; growth substrate Ethanol", "value": "6.2 μmoles/hr/mg of protein"}, {"measurement": "Conversion Rate", "setting": "Pichia sp. NRRL-Y-11328; growth substrate Methanol", "value": "6.8 μmoles/hr/mg of protein"}, {"measurement": "Conversion Rate", "setting": "Pichia sp. NRRL-Y-11328; growth substrate Methylamine", "value": "5.1 μmoles/hr/mg of protein"}, {"measurement": "Conversion Rate", "setting": "Pichia sp. NRRL-Y-11328; growth substrate Methylformate", "value": "6.9 μmoles/hr/mg of protein"}, {"measurement": "Conversion Rate", "setting": "Pichia sp. NRRL-Y-11328; growth substrate Propylamine", "value": "2.1 μmoles/hr/mg of protein"}, {"measurement": "oxidation by the purified enzyme", "setting": "[10]", "value": "catalyzed the oxidation"}, {"measurement": "Conversion Rates", "setting": "[11]", "value": 2.5, "unit": "μmoles/hr/mg protein"}, {"measurement": "specific activities", "setting": "[12]; [16]", "value": "90 nmoles NAD^+ reduced per min. per mg. protein"}, {"measurement": "Conversion Rate", "setting": "[12]; [17]", "value": 5.9, "unit": "μmoles/hr/mg Protein"}]}
{"smiles": "C", "note": "[Methane]", "values": [{"measurement": "inhibition of the epoxidation of propylene to propylene oxide", "setting": "[13]", "value": 50, "unit": "%"}]}
{"smiles": "C=CC", "note": "[Propylene]", "values": [{"measurement": "inhibition of conversion of n-alkanes to sec. alcohols", "setting": "[14]", "value": "inhibited"}, {"measurement": "Oxidative Conversion Rates", "setting": "[15]", "value": 1.5, "unit": "μmole/hr/mg protein"}]}
